# Key:
# Assay type in all cases: in vivo
# Polygonum convolvulus [1] = experiment: Pre-emergence herbicidal action, POLCO; conditions: for Herbicidal action against POLCO: comparative experiment, 20 g of a.i./ha
# From the text: (§1) 1. Pre-Emergence Herbicidal Action Against Harmful Plants Seeds of monocotyledonous and dicotyledonous weed plants and crop plants are laid out in sandy loam soil in wood-fiber pots and covered with soil. The compounds of the invention, formulated in the form of wettable powders (WP) or as emulsion concentrates (EC), are then applied to the surface of the covering soil in the form of an aqueous suspension or emulsion at a water application rate equating to 600 to 800 l/ha, with addition of 0.2% wetting agent. After the treatment, the pots are placed in a greenhouse and kept under good growth conditions for the trial plants. The damage to the test plants is scored visually after a test period of 3 weeks by comparison with untreated controls (herbicidal activity in percent (%): 100% activity=the plants have died, 0% activity=like control plants). […] The tables below illustrate, in an exemplary manner, the […] herbicidal action of the compounds according to the invention, the herbicidal activity being stated in percent. [table] In the experiments that follow, herbicidal action of numerous inventive compounds and the known compounds that are structurally closest from D1 (WO 2012/028579 A1) and D2 (WO 2018/202535 A1) were compared under the above-specified conditions by the pre-emergence and post-emergence method. The example numbers given in the tables relate to the compounds disclosed in the respective documents. In addition to the compounds disclosed in D1 and D2, the following compounds V-1 to V-14 that are encompassed by D1 or D2 but are not compounds specified therein were used in the comparative experiments: • V-1: 2-(methylsulfanyl)-3-(methylsulfinyl)-N-(1-methyl-1H-tetrazol-5-yl)-4-(trifluoromethyl)benzamide • V-2: 2-(methylsulfanyl)-3-(methylsulfonyl)-N-(1-methyl-1H-tetrazol-5-yl)-4-(trifluoromethyl)benzamide • V-3: 2,3-bis(ethylsulfanyl)-N-(1-methyl-1H-tetrazol-5-yl)-4-(trifluoromethyl)benzamide • V-4: 2-chloro-3-(ethylsulfanyl)-N-(1-methyl-1H-tetrazol-5-yl)-4-(trifluoromethyl)benzamide • V-5: 2-chloro-4-iodo-3-(methylsulfanyl)-N-(1-methyl-1H-tetrazol-5-yl)benzamide • V-6: 2-chloro-4-iodo-3-(methylsulfinyl)-N-(1-methyl-1H-tetrazol-5-yl)benzamide • V-7: 2-chloro-4-iodo-3-(methylsulfonyl)-N-(1-methyl-1H-tetrazol-5-yl)benzamide • V-8: 2-bromo-3-(methylsulfanyl)-N-(1-methyl-1H-tetrazol-5-yl)-4-(trifluoromethyl)benzamide • V-9: 2-bromo-3-(methylsulfinyl)-N-(1-methyl-1H-tetrazol-5-yl)-4-(trifluoromethyl)benzamide • V-10: 2-bromo-3-(methylsulfonyl)-N-(1-methyl-1H-tetrazol-5-yl)-4-(trifluoromethyl)benzamide • V-11: 2-bromo-3-(ethylsulfanyl)-N-(1-methyl-1H-tetrazol-5-yl)-4-(trifluoromethyl)benzamide • V-12: 2-bromo-3-(ethylsulfinyl)-N-(1-methyl-1H-tetrazol-5-yl)-4-(trifluoromethyl)benzamide • V-13: 2-bromo-3-(ethylsulfonyl)-N-(1-methyl-1-1H-tetrazol-5-yl)-4-(trifluoromethyl)benzamide • V-14: 2-cyclopropyl-3-(ethylsulfanyl)-N-(1-methyl-1H-tetrazol-5-yl)-4-(trifluoromethyl)benzamide Herbicidal Pre-Emergence Action: […]
# Amaranthus retroflexus [2] = experiment: Pre-emergence herbicidal action, AMARE; parameters: key to Herbicidal action against AMARE: % activity: 100 = plants have died, 0 = like control plants; conditions: for Herbicidal action against AMARE: comparative experiment
# Procedure, shortened: (§2)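 Greenhouse pre-emergence test: formulated compound (WP or EC) applied in water to the soil covering sown seeds, 600–800 l/ha, 0.2% wetting agent. Scored visually in percent at 3 weeks versus untreated plants.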
# Abutilon theophrasti [3] = experiment: Post-emergence herbicidal action, ABUTH; parameters: key: % herbicidal action vs untreated; 100 = plants died, 0 = like control; conditions: post-emergence
# Procedure, shortened: (§3)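 Greenhouse weeds grown in sandy loam were sprayed at the one-leaf stage, 2–3 weeks after sowing, with WP or EC formulations at 600–800 l/ha water plus 0.2% wetting agent. Damage scored visually about 3 weeks later, in percent against untreated controls (100% = plants dead).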
# Echinochloa crus-galli [4] = experiment: Post-emergence herbicidal action, ECHCG; parameters: key: % herbicidal action vs untreated; 100 = plants died, 0 = like control; conditions: post-emergence, dosage 80 g/ha
# Procedure, shortened: as §3
# Amaranthus retroflexus [5] = experiment: Post-emergence herbicidal action, AMARE; parameters: key: % herbicidal action vs untreated; 100 = plants died, 0 = like control; conditions: post-emergence, dosage 80 g/ha
# Procedure, shortened: as §3
# Abutilon theophrasti [6] = experiment: Pre-emergence herbicidal action, ABUTH; parameters: key to Herbicidal action against ABUTH: % activity: 100 = plants have died, 0 = like control plants; conditions: for Herbicidal action against ABUTH: comparative experiment
# Procedure, shortened: as §2
# Matricaria inodora [7] = experiment: Post-emergence herbicidal action, MATIN; parameters: key: % herbicidal action vs untreated; 100 = plants died, 0 = like control; conditions: post-emergence, dosage 80 g/ha
# Procedure, shortened: as §3
# Viola tricolor [8] = experiment: Pre-emergence herbicidal action, VIOTR; parameters: key to Herbicidal action against VIOTR: % activity: 100 = plants have died, 0 = like control plants
# Procedure, shortened: as §2
# Setaria viridis [9] = experiment: Post-emergence herbicidal action, SETVI; parameters: key: % herbicidal action vs untreated; 100 = plants died, 0 = like control; conditions: post-emergence
# Procedure, shortened: as §3
# Hordeum murinum = experiment: Pre-emergence herbicidal action, HORMU; conditions: dosage 320 g/ha, scored visually after 3 weeks vs untreated controls (100% = plants have died)
# From the text: as §1
# Pharbitis purpurea [10] = experiment: Post-emergence herbicidal action, PHBPU; conditions: post-emergence, dosage 80 g/ha
# Procedure, shortened: as §3
# Echinochloa crus-galli [11] = experiment: Pre-emergence herbicidal action, ECHCG; conditions: for pest or weed control at 20 g/ha: 20 g of a.i./ha
# Procedure, shortened: as §2
# Stellaria media [12] = experiment: Pre-emergence herbicidal action, STEME; conditions: dosage 320 g/ha, scored visually after 3 weeks vs untreated controls (100% = plants have died)
# Procedure, shortened: as §2
# Setaria viridis [13] = experiment: Pre-emergence herbicidal action, SETVI; parameters: key to Herbicidal action against SETVI: % activity: 100 = plants have died, 0 = like control plants
# From the text: as §1
# Matricaria inodora [14] = experiment: Pre-emergence herbicidal action, MATIN; conditions: dosage 320 g/ha, scored visually after 3 weeks vs untreated controls (100% = plants have died)
# Procedure, shortened: as §2
# Pharbitis purpurea [15] = experiment: Pre-emergence herbicidal action, PHBPU; conditions: comparative experiment, 20 g of a.i./ha
# From the text: as §1
# Cyperus esculentus = experiment: Pre-emergence herbicidal action, CYPES; parameters: key: % activity: 100 = plants have died, 0 = like control plants; conditions: comparative experiment
# From the text: as §1
# Avena fatua = experiment: Post-emergence herbicidal action, AVEFA; parameters: key: % herbicidal action vs untreated; 100 = plants died, 0 = like control; conditions: comparative experiment, post-emergence, 20 g of a.i./ha
# Description: (§4) [table] 2. Post-Emergence Herbicidal Action Against Harmful Plants Seeds of monocotyledonous and dicotyledonous weed and crop plants are laid out in sandy loam soil in wood-fiber pots, covered with soil and cultivated in a greenhouse under good growth conditions. 2 to 3 weeks after sowing, the test plants are treated at the one-leaf stage. The compounds of the invention, formulated in the form of wettable powders (WP) or as emulsion concentrates (EC), are then sprayed onto the green parts of the plants in the form of an aqueous suspension or emulsion at a water application rate equating to 600 to 800 l/ha, with addition of 0.2% wetting agent. After the test plants have been left to stand in the greenhouse under optimal growth conditions for about 3 weeks, the action of the preparations is assessed visually in comparison to untreated controls (herbicidal action in percent (%): 100% activity=the plants have died, 0% activity=like control plants). […] The tables below illustrate, in an exemplary manner, the post-emergence herbicidal action of the compounds according to the invention, the herbicidal activity being stated in percent. In the experiments that follow, herbicidal action of numerous inventive compounds and the known compounds that are structurally closest from D1 (WO 2012/028579 A1) and D2 (WO 2018/202535 A1) were compared under the above-specified conditions by the pre-emergence and post-emergence method. The example numbers given in the tables relate to the compounds disclosed in the respective documents. In addition to the compounds disclosed in D1 and D2, the following compounds V-1 to V-14 that are encompassed by D1 or D2 but are not compounds specified therein were used in the comparative experiments: • V-1: 2-(methylsulfanyl)-3-(methylsulfinyl)-N-(1-methyl-1H-tetrazol-5-yl)-4-(trifluoromethyl)benzamide • V-2: 2-(methylsulfanyl)-3-(methylsulfonyl)-N-(1-methyl-1H-tetrazol-5-yl)-4-(trifluoromethyl)benzamide • V-3: 2,3-bis(ethylsulfanyl)-N-(1-methyl-1H-tetrazol-5-yl)-4-(trifluoromethyl)benzamide • V-4: 2-chloro-3-(ethylsulfanyl)-N-(1-methyl-1H-tetrazol-5-yl)-4-(trifluoromethyl)benzamide • V-5: 2-chloro-4-iodo-3-(methylsulfanyl)-N-(1-methyl-1H-tetrazol-5-yl)benzamide • V-6: 2-chloro-4-iodo-3-(methylsulfinyl)-N-(1-methyl-1H-tetrazol-5-yl)benzamide • V-7: 2-chloro-4-iodo-3-(methylsulfonyl)-N-(1-methyl-1H-tetrazol-5-yl)benzamide • V-8: 2-bromo-3-(methylsulfanyl)-N-(1-methyl-1H-tetrazol-5-yl)-4-(trifluoromethyl)benzamide • V-9: 2-bromo-3-(methylsulfinyl)-N-(1-methyl-1H-tetrazol-5-yl)-4-(trifluoromethyl)benzamide • V-10: 2-bromo-3-(methylsulfonyl)-N-(1-methyl-1H-tetrazol-5-yl)-4-(trifluoromethyl)benzamide • V-11: 2-bromo-3-(ethylsulfanyl)-N-(1-methyl-1H-tetrazol-5-yl)-4-(trifluoromethyl)benzamide • V-12: 2-bromo-3-(ethylsulfinyl)-N-(1-methyl-1H-tetrazol-5-yl)-4-(trifluoromethyl)benzamide • V-13: 2-bromo-3-(ethylsulfonyl)-N-(1-methyl-1-1H-tetrazol-5-yl)-4-(trifluoromethyl)benzamide • V-14: 2-cyclopropyl-3-(ethylsulfanyl)-N-(1-methyl-1H-tetrazol-5-yl)-4-(trifluoromethyl)benzamide Herbicidal Pre-Emergence Action: […]
# Alopecurus myosuroides = experiment: Post-emergence herbicidal action, ALOMY; parameters: key: % herbicidal action vs untreated; 100 = plants died, 0 = like control; conditions: comparative experiment, post-emergence, 20 g of a.i./ha
# Description: as §4
# Veronica persica [16] = experiment: Pre-emergence herbicidal action, VERPE; parameters: key to Herbicidal action against VERPE: % activity: 100 = plants have died, 0 = like control plants; conditions: comparative experiment, 80 g of a.i./ha
# Procedure, shortened: as §2
# Viola tricolor [17] = experiment: Post-emergence herbicidal action, VIOTR; parameters: key: % herbicidal action vs untreated; 100 = plants died, 0 = like control; conditions: comparative experiment, post-emergence, 20 g of a.i./ha
# Procedure, shortened: as §3
# Stellaria media [18] = experiment: Post-emergence herbicidal action, STEME; parameters: key: % herbicidal action vs untreated; 100 = plants died, 0 = like control; conditions: comparative experiment, post-emergence, 20 g of a.i./ha
# Procedure, shortened: as §3
# Veronica persica [19] = experiment: Post-emergence herbicidal action, VERPE; parameters: key: % herbicidal action vs untreated; 100 = plants died, 0 = like control; conditions: comparative experiment, post-emergence, 20 g of a.i./ha
# Procedure, shortened: as §3
# Polygonum convolvulus [20] = experiment: Post-emergence herbicidal action, POLCO; conditions: comparative experiment, post-emergence, 5 g of a.i./ha
# Description: as §4
# [21] = dosage 320 g/ha, scored visually after 3 weeks vs untreated controls (100% = plants have died)
# [22] = Echinochloa crus-galli, 504 h, comparative experiment, read-out: Herbicidal action against ECHCG
# [23] = comparative experiment, 20 g of a.i./ha
# [24] = comparative experiment, 80 g of a.i./ha
compound,measurement,setting,value
CCn1nnnc1NC(=O)c1ccc(I)c(CSC)c1Cl [Example 2-362],herbicidal activity POLCO,Polygonum convolvulus [1]; [21],100%
same,herbicidal activity AMARE,Amaranthus retroflexus [2]; [21],100%
same,Herbicidal action against ABUTH,Abutilon theophrasti [3]; dosage 80 g/ha,90
same,Herbicidal action against ECHCG,Echinochloa crus-galli [4],100
same,Herbicidal action against AMARE,Amaranthus retroflexus [5],100
same,herbicidal activity ABUTH,Abutilon theophrasti [6]; [21],100%
same,Herbicidal action against MATIN,Matricaria inodora [7],100
same,herbicidal activity VIOTR,Viola tricolor [8]; [21],100%
same,Herbicidal action against SETVI,Setaria viridis [9]; dosage 80 g/ha,90
same,herbicidal activity HORMU,Hordeum murinum,90%
same,Herbicidal action against PHBPU,Pharbitis purpurea [10],90
same,herbicidal activity ECHCG,Echinochloa crus-galli [11]; [21],100%
same,herbicidal activity STEME,Stellaria media [12],100%
same,herbicidal activity SETVI,Setaria viridis [13]; [21],100%
same,herbicidal activity MATIN,Matricaria inodora [14],100%
"CSc1c(C(=O)Nc2nnnn2C)ccc(C(F)(F)F)c1[S+](C)[O-] (stereo not shown) [Example V-1, 2-(methylsulfanyl)-3-(methylsulfinyl)-N-(1-methyl-1H-tetrazol-5-yl)-4-(trifluoromethyl)benzamide, reference compound]",Herbicidal action against POLCO,Polygonum convolvulus [1],0
same,Herbicidal action against AMARE,Amaranthus retroflexus [2]; 20 g of a.i./ha,60
same,Herbicidal action against ABUTH,Abutilon theophrasti [6]; 20 g of a.i./ha,0
same,Herbicidal action against PHBPU,Pharbitis purpurea [15],0
same,Herbicidal action against CYPES,Cyperus esculentus; 20 g of a.i./ha,50
same,pest or weed control at 20 g/ha,Echinochloa crus-galli [11]; [22],50%
"CCSc1c(C(F)(F)F)ccc(C(=O)Nc2nnnn2C)c1Br [Example V-11, 2-bromo-3-(ethylsulfanyl)-N-(1-methyl-1H-tetrazol-5-yl)-4-(trifluoromethyl)benzamide, reference compound]",Herbicidal action against AMARE,Amaranthus retroflexus [2]; 80 g of a.i./ha,0
same,Herbicidal action against ABUTH,Abutilon theophrasti [3]; [23],0
same,Herbicidal action against AVEFA,Avena fatua,0
same,Herbicidal action against ALOMY,Alopecurus myosuroides,0
same,Herbicidal action against ABUTH,Abutilon theophrasti [6]; 80 g of a.i./ha,0
same,Herbicidal action against VERPE,Veronica persica [16],10
same,Herbicidal action against VIOTR,Viola tricolor [8]; [24],80
same,Herbicidal action against SETVI,Setaria viridis [9]; [23],0
same,Herbicidal action against VIOTR,Viola tricolor [17],20
same,Herbicidal action against CYPES,Cyperus esculentus; 80 g of a.i./ha,0
same,pest or weed control at 80 g/ha,"Echinochloa crus-galli [11]; Echinochloa crus-galli, 504 h, comparative experiment, 80 g of a.i./ha, read-out: Herbicidal action against ECHCG",0%
same,Herbicidal action against STEME,Stellaria media [18],0
same,Herbicidal action against VERPE,Veronica persica [19],40
same,Herbicidal action against SETVI,Setaria viridis [13]; [24],0
"CSc1c(C(F)(F)F)ccc(C(=O)Nc2nnnn2C)c1Br [Example V-8, 2-bromo-3-(methylsulfanyl)-N-(1-methyl-1H-tetrazol-5-yl)-4-(trifluoromethyl)benzamide, reference compound]",Herbicidal action against CYPES,Cyperus esculentus; 20 g of a.i./ha,0
"CSc1c(C(=O)Nc2nnnn2C)ccc(C(F)(F)F)c1S(C)(=O)=O [Example V-2, 2-(methylsulfanyl)-3-(methylsulfonyl)-N-(1-methyl-1H-tetrazol-5-yl)-4-(trifluoromethyl)benzamide, reference compound]",Herbicidal action against POLCO,Polygonum convolvulus [1],0
same,Herbicidal action against POLCO,Polygonum convolvulus [20],0
same,Herbicidal action against CYPES,Cyperus esculentus; 20 g of a.i./ha,0
same,pest or weed control at 20 g/ha,Echinochloa crus-galli [11]; [22],50%

# Reference: patent US12492173B2, “Herbicidal substituted N-tetrazolyl aryl carboxamides” (Bayer Aktiengesellschaft, priority 2019, dated 2025)
